The values that follow come from US9809625B2, “Immunomodulators” (BRISTOL-MYERS SQUIBB COMPANY, priority 2015, dated 2017).

Bridge positions count the residues as written; N and C are the ends. Square brackets hold non-standard residues; d marks the D form. Peptide text beside a SMILES is read from it. * marks the point of attachment. ξ: configuration not given here. Trp(1-CH2COOH) = N[C@@H](Cc1cn(CC(=O)O)c2ccccc12)C(=O)O; Hyp = O=C(O)[C@@H]1C[C@@H](O)CN1; ξW = NC(Cc1c[nH]c2ccccc12)C(=O)O; NMeNle = CCCC[C@H](NC)C(=O)O; X3 = CN(CCN*)C(=O)OC(C)(C)C; NH(CH2)3NMe2 = CN(C)CCCN*; NMeA = CN[C@@H](C)C(=O)O; Pyrrolidide = C1CCN(*)C1; Dab = NCC[C@H](N)C(=O)O; Dap = NC[C@H](N)C(=O)O; NHBn = c1ccc(CN*)cc1; NHCH2CH2OMe = COCCN*; X13 = CS(=O)(=O)CCN*; X8 = c1ccc(SCCN*)cc1; N(Me)nPr = CCCN(C)*; X12 = OCC1CCN(*)CC1; X6 = O=C1CN(*)CCN1; Sar = CNCC(=O)O; NHBu = CCCCN*

This experiment deals with T1, PD-1-Ig binding to PD-L1-TVMV-His (PD-L1-His) (Homo sapiens, UniProt Q9NZQ7).
T1 construct: hPDL1(19-239)-TVMV-His; TVMV protease cleavage site (C); made in house; host or cells: HEK293T
T1 sequence (Q9NZQ7 with tags, fused parts or gaps): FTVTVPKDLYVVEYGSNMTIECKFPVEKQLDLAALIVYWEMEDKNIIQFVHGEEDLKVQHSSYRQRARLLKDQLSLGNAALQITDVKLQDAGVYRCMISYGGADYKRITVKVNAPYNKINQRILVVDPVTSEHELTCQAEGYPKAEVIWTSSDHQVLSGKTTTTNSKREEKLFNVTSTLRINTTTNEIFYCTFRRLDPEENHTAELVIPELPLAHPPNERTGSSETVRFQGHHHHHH
The experiment is described as follows: PD-1/PD-L1 Homogenous Time-Resolved Fluorescence (HTRF) binding assay. The note with it: PD-1-Ig (20 nM)/PD-L1-His (10 nM), range classes. From the text: Methods for Testing the Ability of Macrocyclic Peptides to Compete for the Binding of PD-1 to PD-L1 Using Homogenous Time-Resolved Fluorescence (HTRF) Binding Assays
The ability of the macrocyclic peptides of the present disclosure to bind to PD-L1 was investigated using a PD-1/PD-L1 Homogenous Time-Resolved Fluorescence (HTRF) binding assay.
Homogenous Time-Resolved Fluorescence (HTRF) Assays of Binding of Soluble PD-1 to Soluble PD-L1. Soluble PD-1 and soluble PD-L1 refers to proteins with carboxyl-end truncations that remove the transmembrane-spanning regions and are fused to heterologous sequences, specifically the Fc portion of the human immunoglobuling G sequence (Ig) or the hexahistidine epitope tag (His). All binding studies were performed in an HTRF assay buffer consisting of dPBS supplemented with 0.1% (w/v) bovine serum albumin and 0.05% (v/v) Tween-20. For the PD-1-Ig/PD-L1-His binding assay, inhibitors were pre-incubated with PD-L1-His (10 nM final) for 15 m in 4 μl of assay buffer, followed by addition of PD-1-Ig (20 nM final) in 1 μl of assay buffer and further incubation for 15 m. PD-L1 fusion proteins from either human, cynomologous macaques, mouse, or other species were used. HTRF detection was achieved using europium crypate-labeled anti-Ig monoclonal antibody (1 nM final) and allophycocyanin (APC) labeled anti-His monoclonal antibody (20 nM final). Antibodies were diluted in HTRF detection buffer and 5 μl was dispensed on top of binding reaction. The reaction was allowed to equilibrate for 30 minutes and signal (665 nm/620 nm ratio) was obtained using an EnVision fluorometer. Additional binding assays were established between PD-1-Ig/PD-L2-His (20 and 5 nM, respectively), CD80-His/PD-L1-Ig (100 and 10 nM, respectively) and CD80-His/CTLA4-Ig (10 and 5 nM, respectively). Binding/competition studies between biotinylated Compound No. 71 and human PD-L1-His were performed as follows. Macrocyclic peptide inhibitors were pre-incubated with PD-L1-His (10 nM final) for 60 minutes in 4 μl of assay buffer followed by addition of biotinylated Compound No. 71 (0.5 nM final) in 1 μl of assay buffer. Binding was allowed to equilibrate for 30 minutes followed by addition of europium crypated labeled Streptavidin (2.5 pM final) and APC-labeled anti-His (20 nM final) in 5 μl of HTRF buffer. The reaction was allowed to equilibrate for 30 m and signal (665 nm/620 nm ratio) was obtained using an EnVision fluorometer.
Recombinant Proteins. Carboxyl-truncated human PD-1 (amino acids 25-167) with a C-terminal human Ig epitope tag [hPD-1 (25-167)-3S-IG] and human PD-L1 (amino acids 18-239) with a C-terminal His epitope tag [hPD-L1(19-239)-tobacco vein mottling virus protease cleavage site (TVMV)-His] were expressed in HEK293T cells and purified sequentially by recombinant Protein A affinity chromatography and size exclusion chromatography. Human PD-L2-His (Sino Biologicals), CD80-His (Sino Biologicals), CTLA4-Ig (RnD Systems) were all obtained through commercial sources.
On the technique in general: TR-FRET usually uses a lanthanide donor and a delayed reading to cut background.
In turn, `CCCC[C@H]1C(=O)N(C)[C@@H](CCCC)C(=O)N[C@@H](CC(C)C)C(=O)N[C@H](C(=O)NCC(=O)N2CCC(CO)CC2)CSCC(=O)N[C@@H](Cc2ccc(O)cc2)C(=O)N(C)[C@@H](C)C(=O)N[C@@H](CC(N)=O)C(=O)N2CCC[C@H]2C(=O)N[C@@H](CN)C(=O)N[C@@H](CC(C)C)C(=O)N2C[C@H](O)C[C@H]2C(=O)N[C@@H](Cc2c[nH]c3ccccc23)C(=O)NCC(=O)NC(Cc2c[nH]c3ccccc23)C(=O)N1C` (stereo partly drawn) [Example 13111] ({CH2CO}-Y[NMeA]NP[Dap]L[Hyp]WG[ξW][NMeNle][NMeNle]LCG-X12; thioether N-14) yielded a half-inhibitory concentration (IC50) of 0.01 to 0.06 µM.
`CCCC[C@H]1C(=O)N(C)[C@@H](CCCC)C(=O)N[C@@H](CC(C)C)C(=O)N[C@H](C(=O)NCC(=O)N2CCCC2)CSCC(=O)N[C@@H](Cc2ccc(O)cc2)C(=O)N(C)[C@@H](C)C(=O)N[C@@H](CC(N)=O)C(=O)N2CCC[C@H]2C(=O)N[C@@H](CN)C(=O)N[C@@H](CC(C)C)C(=O)N2C[C@H](O)C[C@H]2C(=O)N[C@@H](Cc2c[nH]c3ccccc23)C(=O)NCC(=O)N[C@@H](Cc2c[nH]c3ccccc23)C(=O)N1C` [Example 13085] ({CH2CO}-Y[NMeA]NP[Dap]L[Hyp]WGW[NMeNle][NMeNle]LCG-Pyrrolidide; thioether N-14): the IC50 fell in the range of 0.01 to 0.06 µM.
The compound `CCCC[C@H]1C(=O)N(C)[C@@H](CCCC)C(=O)N[C@@H](CC(C)C)C(=O)N[C@H](C(=O)NCC(=O)NCCS(C)(=O)=O)CSCC(=O)N[C@@H](Cc2ccc(O)cc2)C(=O)N(C)[C@@H](C)C(=O)N[C@@H](CC(N)=O)C(=O)N2CCC[C@H]2C(=O)N[C@@H](CN)C(=O)N[C@@H](CC(C)C)C(=O)N2C[C@H](O)C[C@H]2C(=O)N[C@@H](Cc2c[nH]c3ccccc23)C(=O)NCC(=O)NC(Cc2c[nH]c3ccccc23)C(=O)N1C` (stereo partly drawn) [Example 13116] ({CH2CO}-Y[NMeA]NP[Dap]L[Hyp]WG[ξW][NMeNle][NMeNle]LCG-X13; thioether N-14) returned an IC50 of 0.01 to 0.06 µM.
On to `CCCC[C@H]1C(=O)N(C)[C@@H](CCCC)C(=O)N[C@@H](CC(C)C)C(=O)N[C@H](C(=O)NCC(=O)N2CCNC(=O)C2)CSCC(=O)N[C@@H](Cc2ccc(O)cc2)C(=O)N(C)[C@@H](C)C(=O)N[C@@H](CC(N)=O)C(=O)N2CCC[C@H]2C(=O)N[C@@H](CN)C(=O)N[C@@H](CC(C)C)C(=O)N2C[C@H](O)C[C@H]2C(=O)N[C@@H](Cc2c[nH]c3ccccc23)C(=O)NCC(=O)NC(Cc2c[nH]c3ccccc23)C(=O)N1C` (stereo partly drawn) [Example 13114] ({CH2CO}-Y[NMeA]NP[Dap]L[Hyp]WG[ξW][NMeNle][NMeNle]LCG-X6; thioether N-14), for which the IC50 is 0.004 to 0.0099 µM.
In turn, `CCCC[C@H]1C(=O)N(C)[C@@H](CCCC)C(=O)N[C@@H](CC(C)C)C(=O)N[C@H](C(=O)NCC(=O)NCc2ccccc2)CSCC(=O)N[C@@H](Cc2ccc(O)cc2)C(=O)N(C)[C@@H](C)C(=O)N[C@@H](CC(N)=O)C(=O)N2CCC[C@H]2C(=O)N[C@@H](CN)C(=O)N[C@@H](CC(C)C)C(=O)N2C[C@H](O)C[C@H]2C(=O)N[C@@H](Cc2c[nH]c3ccccc23)C(=O)N[C@@H](CCN)C(=O)N[C@@H](Cc2cn(CC(=O)O)c3ccccc23)C(=O)N1C` [Example 13080] ({CH2CO}-Y[NMeA]NP[Dap]L[Hyp]W[Dab][Trp(1-CH2COOH)][NMeNle][NMeNle]LCG-NHBn; thioether N-14) had a concentration for half-maximal inhibition (IC50) of 0.004 to 0.0099 µM.
`CCCC[C@H]1C(=O)N(C)[C@@H](CCCC)C(=O)N[C@@H](CC(C)C)C(=O)N[C@H](C(=O)NCC(=O)NCCCN(C)C)CSCC(=O)N[C@@H](Cc2ccc(O)cc2)C(=O)N(C)[C@@H](C)C(=O)N[C@@H](CC(N)=O)C(=O)N2CCC[C@H]2C(=O)N[C@@H](CN)C(=O)N[C@@H](CC(C)C)C(=O)N2C[C@H](O)C[C@H]2C(=O)N[C@@H](Cc2c[nH]c3ccccc23)C(=O)NCC(=O)NC(Cc2c[nH]c3ccccc23)C(=O)N1C` (stereo partly drawn) [Example 13098] ({CH2CO}-Y[NMeA]NP[Dap]L[Hyp]WG[ξW][NMeNle][NMeNle]LCG-{NH(CH2)3NMe2}; thioether N-14): the half-inhibitory concentration (IC50) was 0.01 to 0.06 µM.
The value for `CCCC[C@H]1C(=O)N(C)[C@@H](CCCC)C(=O)N[C@@H](CC(C)C)C(=O)N[C@H](C(=O)N(C)CC(N)=O)CSCC(=O)N[C@@H](Cc2ccc(O)cc2)C(=O)N(C)[C@@H](C)C(=O)N[C@@H](CC(N)=O)C(=O)N2CCC[C@H]2C(=O)N[C@@H](CN)C(=O)N[C@@H](CC(C)C)C(=O)N2C[C@H](O)C[C@H]2C(=O)N[C@@H](Cc2c[nH]c3ccccc23)C(=O)NCC(=O)N[C@@H](Cc2c[nH]c3ccccc23)C(=O)N1C` [Example 13090] ({CH2CO}-Y[NMeA]NP[Dap]L[Hyp]WGW[NMeNle][NMeNle]LC[Sar]-NH2; thioether N-14) was 0.004 to 0.0099 µM.
As to `CCCCNC(=O)CNC(=O)[C@@H]1CSCC(=O)N[C@@H](Cc2ccc(O)cc2)C(=O)N(C)[C@@H](C)C(=O)N[C@@H](CC(N)=O)C(=O)N2CCC[C@H]2C(=O)N[C@@H](CN)C(=O)N[C@@H](CC(C)C)C(=O)N2C[C@H](O)C[C@H]2C(=O)N[C@@H](Cc2c[nH]c3ccccc23)C(=O)NCC(=O)NC(Cc2c[nH]c3ccccc23)C(=O)N(C)[C@@H](CCCC)C(=O)N(C)[C@@H](CCCC)C(=O)N[C@@H](CC(C)C)C(=O)N1` (stereo partly drawn) [Example 13100] ({CH2CO}-Y[NMeA]NP[Dap]L[Hyp]WG[ξW][NMeNle][NMeNle]LCG-NHBu; thioether N-14), the IC50 was 0.01 to 0.06 µM.
The value for `CCCC[C@H]1C(=O)N(C)[C@@H](CCCC)C(=O)N[C@@H](CC(C)C)C(=O)N[C@H](C(=O)NCC(=O)N(C)CCC)CSCC(=O)N[C@@H](Cc2ccc(O)cc2)C(=O)N(C)[C@@H](C)C(=O)N[C@@H](CC(N)=O)C(=O)N2CCC[C@H]2C(=O)N[C@@H](CN)C(=O)N[C@@H](CC(C)C)C(=O)N2C[C@H](O)C[C@H]2C(=O)N[C@@H](Cc2c[nH]c3ccccc23)C(=O)NCC(=O)N[C@@H](Cc2c[nH]c3ccccc23)C(=O)N1C` [Example 13084] ({CH2CO}-Y[NMeA]NP[Dap]L[Hyp]WGW[NMeNle][NMeNle]LCG-{N(Me)nPr}; thioether N-14) was 0.01 to 0.06 µM.
The value for `CCCC[C@H]1C(=O)N(C)[C@@H](CCCC)C(=O)N[C@@H](CC(C)C)C(=O)N[C@H](C(=O)NCC(=O)NCCN(C)C(=O)OC(C)(C)C)CSCC(=O)N[C@@H](Cc2ccc(O)cc2)C(=O)N(C)[C@@H](C)C(=O)N[C@@H](CC(N)=O)C(=O)N2CCC[C@H]2C(=O)N[C@@H](CN)C(=O)N[C@@H](CC(C)C)C(=O)N2C[C@H](O)C[C@H]2C(=O)N[C@@H](Cc2c[nH]c3ccccc23)C(=O)NCC(=O)NC(Cc2c[nH]c3ccccc23)C(=O)N1C` (stereo partly drawn) [Example 13113] ({CH2CO}-Y[NMeA]NP[Dap]L[Hyp]WG[ξW][NMeNle][NMeNle]LCG-X3; thioether N-14) was 0.01 to 0.06 µM.
The compound `CCCC[C@H]1C(=O)N(C)[C@@H](CCCC)C(=O)N[C@@H](CC(C)C)C(=O)N[C@H](C(=O)NCC(=O)NCCOC)CSCC(=O)N[C@@H](Cc2ccc(O)cc2)C(=O)N(C)[C@@H](C)C(=O)N[C@@H](CC(N)=O)C(=O)N2CCC[C@H]2C(=O)N[C@@H](CN)C(=O)N[C@@H](CC(C)C)C(=O)N2C[C@H](O)C[C@H]2C(=O)N[C@@H](Cc2c[nH]c3ccccc23)C(=O)NCC(=O)N[C@@H](Cc2c[nH]c3ccccc23)C(=O)N1C` [Example 13082] ({CH2CO}-Y[NMeA]NP[Dap]L[Hyp]WGW[NMeNle][NMeNle]LCG-NHCH2CH2OMe; thioether N-14) registered an IC50 of 0.01 to 0.06 µM.
With `CCCC[C@H]1C(=O)N(C)[C@@H](CCCC)C(=O)N[C@@H](CC(C)C)C(=O)N[C@H](C(=O)NCC(=O)NCCSc2ccccc2)CSCC(=O)N[C@@H](Cc2ccc(O)cc2)C(=O)N(C)[C@@H](C)C(=O)N[C@@H](CC(N)=O)C(=O)N2CCC[C@H]2C(=O)N[C@@H](CN)C(=O)N[C@@H](CC(C)C)C(=O)N2C[C@H](O)C[C@H]2C(=O)N[C@@H](Cc2c[nH]c3ccccc23)C(=O)NCC(=O)NC(Cc2c[nH]c3ccccc23)C(=O)N1C` (stereo partly drawn) [Example 13101] ({CH2CO}-Y[NMeA]NP[Dap]L[Hyp]WG[ξW][NMeNle][NMeNle]LCG-X8; thioether N-14), the IC50 lay in the range of 0.01 to 0.06 µM.

Broadly, the IC50 is the concentration that gives 50% inhibition. A lower IC50 goes with higher potency.
